In this assay the target is T1, pig brain prolyl oligopeptidase (Sus scrofa, UniProt P23687).
T1 construct: The brains were homogenized with a glass-teflon homogenisator; from tissue; host or cells: pig brain (excluding cerebellum and most of the brain stem), 10000 g supernatant of the homogenate
T1 sequence (P23687 whole entry): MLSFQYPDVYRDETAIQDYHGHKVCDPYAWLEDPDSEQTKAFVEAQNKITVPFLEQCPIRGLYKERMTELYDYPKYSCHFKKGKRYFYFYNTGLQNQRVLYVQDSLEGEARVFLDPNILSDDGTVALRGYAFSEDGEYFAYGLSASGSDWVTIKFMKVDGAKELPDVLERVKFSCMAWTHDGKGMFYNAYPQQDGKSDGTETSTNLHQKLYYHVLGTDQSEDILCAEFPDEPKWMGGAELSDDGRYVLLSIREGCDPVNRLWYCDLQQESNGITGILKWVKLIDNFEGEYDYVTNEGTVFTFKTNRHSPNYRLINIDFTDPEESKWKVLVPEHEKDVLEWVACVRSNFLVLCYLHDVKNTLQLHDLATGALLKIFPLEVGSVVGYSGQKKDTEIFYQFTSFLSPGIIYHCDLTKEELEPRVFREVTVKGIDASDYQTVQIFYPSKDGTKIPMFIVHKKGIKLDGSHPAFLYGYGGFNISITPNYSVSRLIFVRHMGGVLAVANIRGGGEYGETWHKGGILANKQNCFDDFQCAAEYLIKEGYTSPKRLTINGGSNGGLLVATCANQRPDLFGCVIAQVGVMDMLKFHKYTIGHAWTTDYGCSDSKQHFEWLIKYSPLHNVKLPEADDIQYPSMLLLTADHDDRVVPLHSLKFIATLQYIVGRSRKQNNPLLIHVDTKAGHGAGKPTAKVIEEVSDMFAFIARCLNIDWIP
The assay can be described thus: Inhibition of prolyl oligopeptidase activity of pig brain (Suc-Gly-Pro-AMC, fluorometric). Type of assay: biochemical. To be noted: pig brain homogenate supernatant, 30° C., pH 7.0. Here is the method: The whole pig brains, excluding cerebellum and most of the brain stem, of three pigs were placed in liquid nitrogen within 30 min from killing and stored at −80° C. until homogenized. The brains were homogenized with a glass-teflon homogenisator in 3 volumes (w/v) of ice-cold 0.1 M sodium-potassium phosphate buffer (pH 7.0) and the homogenates were centrifuged for 20 min at 4° C. at 10000 g. The supernatants were collected, pooled and stored in small aliquots at −80° C. until used. The supernatant was thawn in ice just before activity assay and diluted in a ratio 1:2 with homogenisation buffer (=enzyme preparation).
In the microplate assay procedure, 10 μl of enzyme preparation was preincubated with 460 μl of 0.1 M sodium-potassium phosphate buffer (pH 7.0) and 5 μl of a solution of novel compound dissolved in DMSO and diluted with 0.1 M sodium-potassium phosphate buffer at 30° C. for 30 min. The controls contained 10 μl enzyme preparation and 465 μl of 0.1 M sodium-potassium phosphate buffer (pH 7.0). The reaction was initiated by adding 25 μl of 4 mM Suc-Gly-Pro-AMC (AMC: 7-amido-4-methylcoumarin) dissolved in 0.1 M sodium-potassium phosphate buffer (pH 7.0), and the mixture was incubated at 30° C. for 60 min. The reaction was terminated by adding 500 μl of 1 M sodium acetate buffer (pH 4.2).
Formation of 7-amido-4-methylcoumarin was determined fluorometrically with microplate fluorescence reader (excitation at 360 nm and emission at 460 nm). The final concentration of novel compounds in the assay mixture varied from 10^−12 M to 10^−4 M.
The prolyl oligopeptidase activity was calculated with the following formula in the presence of various concentrations of novel compounds. To reveal the inhibitory potency of the novel compound, activities (% of control) were plotted against the log concentration of the compound, and the IC50 value was determined by non-linear regression utilizing GraphPad Prism software.
Activity (% of control)=a/b×100, where • a=flourescence intensity in the presence of a novel compound • […] a novel compound (control)
In the case of `C[C@H](NC(=O)c1cccc(C(=O)N[C@@H](C)C(=O)N2CCCC2)c1)C(=O)N1CCCC1` [Example 46, Isophthalic acid di-(L-alanyl-pyrrolidine)amide], half-maximal inhibition (IC50) required 87 nM. In other words, the double-digit nanomolar range.

On to `N#C[C@@H]1CCCN1C(=O)[C@@H]1CCCN1C(=O)CCC(=O)N1CCCCCC1` [Example 18, Succinic acid hexamethyleneimine L-prolyl-2(S)-cyanopyrrolidine amide], for which the IC50 (in general, the concentration needed to halve the response being measured) turned out to be 0.8 nM. Compared with the last compound, the IC50 is about 110-fold lower.

As for `O=C(C1CCCC1)[C@@H]1CCCN1C(=O)c1cccc(C(=O)N2CCC[C@H]2C(=O)C2CCCC2)c1` [Example 41, Isophthalic acid di-(2(S)-(cyclopentanecarbonyl)pyrrolidine)amide], the IC50 worked out at 78 nM.

`O=C(CCCC(=O)N1CCC[C@H]1C(=O)N1CCCC1)N1CCCCCC1` [Example 48, Glutaric acid hexamethyleneimine L-prolyl-pyrrolidine amide] gave an IC50 of 28 nM.

With `CSCC[C@H](NC(=O)c1cccc(C(=O)N[C@@H](CCSC)C(=O)N2CCCC2)c1)C(=O)N1CCCC1` [Example 47, Isophthalic acid di-(L-methionyl-pyrrolidine)amide], the IC50 stood at 110 nM. This IC50 is about 3.9-fold higher than that of the compound before.

Turning to `O=C(NC(Cc1ccccc1)C(=O)N1CCCC1)c1cccc(C(=O)NC(Cc2ccccc2)C(=O)N2CCCC2)c1` [Example 50, Isophtalic acid di-(L-phenylalanyl-pyrrolidine)amide], the IC50 worked out at 79 nM.

The compound `O=C(CO)[C@@H]1CCCN1C(=O)[C@@H]1CCCN1C(=O)c1cccc(C(=O)N2CCC[C@H]2C(=O)N2CCCC2)c1` [Example 22, Isophthalic acid L-prolyl-2(S)-(hydroxyacetyl)pyrrolidine L-prolyl-pyrrolidine amide] registered an IC50 of 0.4 nM.

In turn, `O=C([C@@H]1CCCN1C(=O)c1cccc(C(=O)N2CCC[C@H]2C(=O)N2CCCC2)c1)N1CCCC1` [Example 11, Isophthalic acid di-(L-prolyl-pyrrolidine)amide] showed an IC50 of 26 nM.

`N#C[C@@H]1CCCN1C(=O)[C@@H]1CCCN1C(=O)CCC(=O)N1CCC[C@H]1C(=O)N1CCC[C@H]1C#N` [Example 21, Succinic acid di-(L-prolyl-2(S)-cyanopyrrolidine)amide] gave an IC50 of 0.8 nM.

Values taken from US7173024B2, “Compounds having prolyl oligopeptidase inhibitory activity, methods for their preparation and their use” (Orion Corporation, priority 2001, dated 2007).
